Measurements from US20080161305A1, “C-Met Modulators and Methods of Use” (EXELIXIS, INC., priority 2005, published 2008).

Key:
Assay type in all cases: biochemical
[1] = biological target: T1, Flt-4 (baculovirus expressed human Flt-4 kinase domain D725-R1298) (Homo sapiens, UniProt P35916); assay: flt-4 Alphascreen Tyrosine Kinase assay; conditions: 5 μM ATP, 1 nM Flt-4; read-out: flt4 IC50
T1 construct: human Flt-4 kinase domain D725-R1298; made in house
Procedure: (§1) Kinase activity and compound inhibition are investigated using one or more of the three assay formats described below. The ATP concentrations for each assay are selected to be close to the Michaelis-Menten constant (KM) for each individual kinase. Dose-response experiments are performed at 10 different inhibitor concentrations in a 384-well plate format. The data are fitted to the following four-parameter equation:
(§2) Y=Min+(Max−Min)/(1+(X/IC50)̂H)
(§3) where Y is the observed signal, X is the inhibitor concentration, Min is the background signal in the absence of enzyme (0% enzyme activity), Max is the signal in the absence of inhibitor (100% enzyme activity), IC50 is the inhibitor concentration at 50% enzyme inhibition and H represents the empirical Hill's slope to measure the cooperativity. Typically H is close to unity. c-Met Assay
Biochemical activity for flt-4 was assessed using an Alphascreen Tyrosine Kinase protocol. AlphaScreen™ (Perkin Elmer) technology is a proximity assay employing microparticles. […] Substrate phosphorylation was measured by addition of donor/acceptor beads by chemiluminescence following donor-acceptor bead complex formation. […] After 2-16 hr incubation at ambient temperature plates were read using an AlphaQuest reader (Perkin Elmer). IC50 values correlate well with those determined by radiometric assays.

[2] = biological target: T2, KDR (baculovirus expressed human KDR kinase domain D807-V1356) (Homo sapiens, UniProt P35968); assay: KDR Luciferase-Coupled Chemiluminescent Kinase assay (LCCA); conditions: 3 μM ATP, 5 nM KDR
T2 construct: human KDR kinase domain D807-V1356; made in house
Procedure: as §1, §2, §3
(§4) KDR biochemical activity was assessed using a Luciferase-Coupled Chemiluminescent Kinase assay (LCCA) format. Kinase activity was measured as the percent ATP remaining following the kinase reaction. Remaining ATP was detected by luciferase-luciferin-coupled chemiluminescence. […] The mixture is incubated at ambient temperature for 4 hours after which 20 uL luciferase-luciferin mix is added and the chemiluminescent signal read using a Wallac Victor^2 reader. […]

[3] = biological target: c-Met (baculovirus expressed human c-Met kinase domain P948-S1343) (Homo sapiens, UniProt P08581); assay: c-Met Luciferase-Coupled Chemiluminescent Kinase assay (LCCA); conditions: 1 μM ATP, 10 nM c-Met
Procedure: as §1, §2, §3
as §4, with “c-Met” for “KDR”, “format as described above. Again, kinase” for “format. Kinase”, “2” for “4”

[4] = biological target: c-Kit kinase (Homo sapiens, UniProt P10721); assay: c-Kit AlphaScreen assay
Procedure: as §1, §2, §3
c-Kit biochemical activity was assessed using AlphaScreen™ (Perkin Elmer) technology, described above. Test compounds, ATP, biotinylated poly(Glu, Tyr) and c-Kit kinase were combined in a volume of 20 μL in a 384-well white, medium binding microtiter plate (Greiner). Reaction mixtures were incubated for 1 hr at ambient temperature. […] After 16 hr incubation at ambient temperature plates were read using an AlphaQuest reader (Perkin Elmer).

[5] = biological target: T3, Flt-3 (baculovirus expressed human Flt-3 kinase domain R571-S993) (Homo sapiens, UniProt P36888); assay: flt-3 Luciferase-Coupled Chemiluminescent Kinase assay (LCCA); conditions: 5 μM ATP, 5 nM Flt-3; read-out: flt3 IC50
T3 construct: human Flt-3 kinase domain R571-S993; made in house
T3 sequence (P36888 571-993): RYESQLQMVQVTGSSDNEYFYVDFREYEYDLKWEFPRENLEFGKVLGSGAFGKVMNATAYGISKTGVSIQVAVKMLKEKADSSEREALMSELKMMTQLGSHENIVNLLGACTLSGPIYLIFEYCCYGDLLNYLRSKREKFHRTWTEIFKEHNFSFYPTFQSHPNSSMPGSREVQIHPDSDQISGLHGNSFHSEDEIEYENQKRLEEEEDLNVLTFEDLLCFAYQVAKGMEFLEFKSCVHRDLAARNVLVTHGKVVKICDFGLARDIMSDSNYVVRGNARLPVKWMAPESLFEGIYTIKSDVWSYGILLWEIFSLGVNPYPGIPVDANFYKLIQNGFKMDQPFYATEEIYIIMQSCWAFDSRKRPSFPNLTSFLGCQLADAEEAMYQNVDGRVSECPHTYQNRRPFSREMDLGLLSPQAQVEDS
Procedure: as §1, §2, §3
Biochemical activity for flt-3 was assessed using a Luciferase-Coupled Chemiluminescent Kinase assay (LCCA) format. Kinase activity was measured as the percent ATP remaining following the kinase reaction. Remaining ATP was detected by luciferase-luciferin-coupled chemiluminescence. […] The mixture is incubated at ambient temperature for 3 hours after which 20 uL luciferase-luciferin mix is added and the chemiluminescent signal read using a Wallac Victor^2 reader. […]

c-Met (baculovirus expressed human c-Met kinase domain P948-S1343), sequence (P08581 1078-1345 limits assumed): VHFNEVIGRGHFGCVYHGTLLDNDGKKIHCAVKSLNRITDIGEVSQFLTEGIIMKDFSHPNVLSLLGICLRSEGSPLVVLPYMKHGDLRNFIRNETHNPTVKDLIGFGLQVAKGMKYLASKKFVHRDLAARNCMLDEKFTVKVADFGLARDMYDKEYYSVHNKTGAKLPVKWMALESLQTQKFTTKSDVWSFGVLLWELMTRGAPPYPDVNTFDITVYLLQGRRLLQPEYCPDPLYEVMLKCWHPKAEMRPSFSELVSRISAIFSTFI
c-Kit kinase, sequence (P10721 26-976): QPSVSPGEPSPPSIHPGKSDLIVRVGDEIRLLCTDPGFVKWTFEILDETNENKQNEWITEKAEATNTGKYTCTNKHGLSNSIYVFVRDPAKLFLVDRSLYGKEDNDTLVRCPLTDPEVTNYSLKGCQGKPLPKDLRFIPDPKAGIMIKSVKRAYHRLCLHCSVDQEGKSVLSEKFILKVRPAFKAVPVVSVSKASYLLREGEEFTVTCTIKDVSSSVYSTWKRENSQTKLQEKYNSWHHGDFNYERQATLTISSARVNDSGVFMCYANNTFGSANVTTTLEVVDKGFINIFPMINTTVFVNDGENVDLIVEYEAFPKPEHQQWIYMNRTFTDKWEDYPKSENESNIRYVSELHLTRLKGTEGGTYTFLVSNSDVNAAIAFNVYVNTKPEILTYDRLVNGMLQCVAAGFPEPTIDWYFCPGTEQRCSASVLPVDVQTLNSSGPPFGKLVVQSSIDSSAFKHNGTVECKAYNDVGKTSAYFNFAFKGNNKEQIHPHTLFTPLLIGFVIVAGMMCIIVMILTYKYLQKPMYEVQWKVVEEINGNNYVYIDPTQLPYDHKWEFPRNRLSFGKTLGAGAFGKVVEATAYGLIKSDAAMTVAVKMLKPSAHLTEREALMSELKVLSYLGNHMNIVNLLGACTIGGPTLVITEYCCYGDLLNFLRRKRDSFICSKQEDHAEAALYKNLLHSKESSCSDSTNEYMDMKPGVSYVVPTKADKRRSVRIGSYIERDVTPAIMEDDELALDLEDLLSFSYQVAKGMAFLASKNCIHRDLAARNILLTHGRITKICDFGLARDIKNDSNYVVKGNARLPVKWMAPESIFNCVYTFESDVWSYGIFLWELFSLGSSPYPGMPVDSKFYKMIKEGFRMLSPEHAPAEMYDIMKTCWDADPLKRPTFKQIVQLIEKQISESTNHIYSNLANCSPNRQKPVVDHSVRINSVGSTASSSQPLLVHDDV
T1 sequence (P35916 725-1298 isoform P35916-1): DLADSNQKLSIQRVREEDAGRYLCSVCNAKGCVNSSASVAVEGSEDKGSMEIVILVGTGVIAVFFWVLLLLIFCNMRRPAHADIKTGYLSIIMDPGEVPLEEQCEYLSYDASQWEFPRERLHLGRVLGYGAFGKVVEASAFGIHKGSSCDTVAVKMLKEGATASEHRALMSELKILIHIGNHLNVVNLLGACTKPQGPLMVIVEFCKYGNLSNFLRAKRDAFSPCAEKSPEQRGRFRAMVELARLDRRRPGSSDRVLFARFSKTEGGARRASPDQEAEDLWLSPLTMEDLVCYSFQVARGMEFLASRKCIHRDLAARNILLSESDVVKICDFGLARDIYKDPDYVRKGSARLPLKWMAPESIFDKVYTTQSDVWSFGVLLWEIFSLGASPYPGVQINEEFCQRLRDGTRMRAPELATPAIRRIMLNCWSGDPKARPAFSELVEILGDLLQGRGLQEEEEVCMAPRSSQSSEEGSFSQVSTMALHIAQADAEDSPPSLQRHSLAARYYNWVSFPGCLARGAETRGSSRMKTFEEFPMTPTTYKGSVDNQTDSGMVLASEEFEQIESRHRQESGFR
T2 sequence (P35968 807-1356): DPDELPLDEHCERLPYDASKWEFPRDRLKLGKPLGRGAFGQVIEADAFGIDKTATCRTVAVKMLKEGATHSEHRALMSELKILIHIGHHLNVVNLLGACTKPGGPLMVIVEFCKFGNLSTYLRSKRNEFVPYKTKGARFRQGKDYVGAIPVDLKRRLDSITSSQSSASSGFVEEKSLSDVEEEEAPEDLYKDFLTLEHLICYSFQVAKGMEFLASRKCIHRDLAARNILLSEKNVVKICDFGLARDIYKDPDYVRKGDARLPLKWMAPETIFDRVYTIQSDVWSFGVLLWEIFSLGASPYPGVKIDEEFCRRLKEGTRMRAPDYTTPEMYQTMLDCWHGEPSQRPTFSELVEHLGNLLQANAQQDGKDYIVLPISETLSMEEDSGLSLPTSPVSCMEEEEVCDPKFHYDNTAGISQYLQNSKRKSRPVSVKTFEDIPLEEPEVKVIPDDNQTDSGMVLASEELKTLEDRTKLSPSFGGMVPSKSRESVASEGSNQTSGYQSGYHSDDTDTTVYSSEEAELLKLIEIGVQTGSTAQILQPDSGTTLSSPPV

IC50 [1]: < 0.05 µM
IC50 [2]: < 0.05 µM
IC50 [3]: < 0.05 µM
IC50 [4]: < 0.05 µM
IC50 [5]: < 0.05 µM
Compound: COc1cc2c(Oc3ccc(NC(=O)C(=O)NCCc4ccc(F)cc4)cc3F)ccnc2cc1OCCCN1CCOCC1 [Entry 1, N-[3-fluoro-4-({6-(methyloxy)-7-[(3-morpholin-4-ylpropyl)oxy]quinolin-4-yl}oxy)phenyl]-N′-[2-(4-fluorophenyl)ethyl]ethanediamide]
